# Experiments:
# [1] = tested on: human aortic valve interstitial cells (AVICs); test: Osteogenic assay: calcification of human AVICs in osteogenic media (Alizarin Red); format: cell-based; settings: for calcification of AVICs: STAT5 inhibitor 10 μM added every two days during osteogenic (OST) treatment, after 21 days of treatment (FIG. 6D)
# Protocol: Human cell isolation. Patient-specific lines were established by using the same valves for histopathology, RNA, and cell isolation. Primary aortic valve interstitial cells (AVICs) were obtained from the patient aortic valve. Briefly, leaflets were washed with PBS containing 10 mg/ml gentamicin (GIBCO) and 250 μg/ml fungizone (GIBCO) and dissociated with 0.1% collagenase II at 37 C and 5% of CO2 for 18 hours. Then, the tissue was further dissociated by gently mixing it by pipetting with a serological pipette to ensure the release of A VICs and then passed through a […] filter to remove debris. Cells were pelleted and then resuspended in Dulbecco's Modified Eagle's Medium (DMEM) supplemented with 10% fetal bovine serum (FBS) and 1×penicillin-streptomycin (P/S). Human coronary artery smooth muscle cells (CASMC) were obtained from patient coronary. Briefly, vessels were washed with PBS containing 10 mg/ml gentamicin (GIBCO) and 250 μg/ml fungizone (GIBCO). Vessels were cut open to expose the lumen and intima and adventitia were gently scrapped. Vessels were then sectioned and dissociated with 0.1% collagenase II for 3 hrs. Cells were pelleted and then seed and expanded.
# (§1) Cell Culture. AVICs lines were expanded in Dulbecco's Modified Eagle's Medium supplemented with 10% fetal bovine serum and 1×penicillin-streptomycin. Cells were used between passages 4 and 15. Growth media was changed every three days, and cells were split 1:2 when confluent. CASMC lines were expanded in smooth muscle media SMGM (CC-3181) supplemented with BULLETKIT (CC-4149). Human MSCs (PT-2501, Lonza) were expanded on Minimum Essential Medium alpha without nucleosides and supplemented with 10% fetal bovine serum and 1×penicillin-streptomycin and used between passages 4 and 10. Cells are routinely tested for mycoplasma contamination.
# (§2) Osteogenic Assay. […]
# (§3) Alizarin Red Staining and Quantification. […] Absorbance was at 405 nm using a 96-well plate spectrophotometer.
# [2] = tested on: hCASMC; test: Osteogenic assay: calcification of human coronary artery smooth muscle cells; format: cell-based; settings: inhibitor 10 μM, osteogenic media, 21 days (FIG. 16D, FIG. 6E)
# Protocol: Scalebar 100 μm (middle panel). Quantification of PLA signal is shown on the right graphs. n=4. […] Diagram depicting STAT5 and TERT binding RUNX2 promoter and the positions of the predicted STAT5 binding sites (bottom panel). […] Scalebar 400 μm n=8; means±SD. Quantification of calcification is shown on the right graph. Data is represented as means±SD. P were calculated by Kruskal-Wallis H test with Dunn pairwise comparison post hoc test. Scalebar 400 um. […] When the cells reached confluence, media was replaced with osteogenic media (Minimum Essential Medium alpha with nucleosides, 10% FBS, 1×P/S, 10 mM glycerol phosphate, 50 μM ascorbic acid 2-phosphate, and 100 nM dexamethasone) for 21 days. No treatment media consisted of Minimum Essential Medium alpha with nucleosides, 10% FBS, 1×P/S. Media was replaced every four days.
# Quantification of protein levels. n=4 control, n=4 CAVD; means±SD; two-way ANOVA. […] Scalebar 100 um. Quantification of PLA is shown on the right graph. n=4. […] P were calculated by Kruskal-Wallis H test with Dunn pairwise comparison post hoc test. Scalebar 400 um. […] Scalebar 50 um.
# Human cell isolation. Patient-specific lines were established by using the same valves for histopathology, RNA, and cell isolation. Primary aortic valve interstitial cells (AVICs) were obtained from the patient aortic valve. […]
# Alizarin Red Staining and Quantification. […]
# [3] = target: T1, STAT5A (Homo sapiens, UniProt P42229); settings: as reported; cited from earlier work
# T1 sequence (P42229 1-794): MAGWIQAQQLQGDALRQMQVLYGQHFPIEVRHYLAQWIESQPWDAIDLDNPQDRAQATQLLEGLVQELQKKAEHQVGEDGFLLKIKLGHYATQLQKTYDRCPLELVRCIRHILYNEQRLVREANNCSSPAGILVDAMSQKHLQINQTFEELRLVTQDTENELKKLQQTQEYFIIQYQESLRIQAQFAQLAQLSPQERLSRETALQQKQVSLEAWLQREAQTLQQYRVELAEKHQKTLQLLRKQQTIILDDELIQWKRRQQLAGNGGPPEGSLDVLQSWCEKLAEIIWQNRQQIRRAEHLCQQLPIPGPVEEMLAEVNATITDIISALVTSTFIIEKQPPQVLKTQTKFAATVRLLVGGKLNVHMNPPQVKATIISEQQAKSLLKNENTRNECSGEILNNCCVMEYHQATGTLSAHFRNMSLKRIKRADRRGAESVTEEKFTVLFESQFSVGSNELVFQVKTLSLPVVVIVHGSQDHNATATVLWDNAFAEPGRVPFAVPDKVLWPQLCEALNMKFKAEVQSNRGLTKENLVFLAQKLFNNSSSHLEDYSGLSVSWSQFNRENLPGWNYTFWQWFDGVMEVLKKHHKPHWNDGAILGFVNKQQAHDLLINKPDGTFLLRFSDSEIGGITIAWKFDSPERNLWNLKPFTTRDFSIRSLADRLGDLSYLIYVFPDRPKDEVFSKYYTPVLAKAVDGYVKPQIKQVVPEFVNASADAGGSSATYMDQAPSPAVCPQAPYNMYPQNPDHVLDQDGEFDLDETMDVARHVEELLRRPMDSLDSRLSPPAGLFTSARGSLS
# [4] = tested on: hMSCs; test: Osteogenic assay: calcification of human mesenchymal stem cells; format: cell-based; settings: inhibitor 10 μM, osteogenic media, 21 days (FIG. 17)
# Protocol: When cells reached confluence, media was replaced with osteogenic media (Minimum Essential Medium alpha with nucleosides, 10% FBS 1×P/S, 10 mM glycerol phosphate, 50 uM ascorbic acid 2-phosphate, and 100 nM dexamethasone) for 21 days. No treatment media consisted of Minimum Essential Medium alpha with nucleosides, 10% FBS, 1×P/S. Media was replaced every four days. […] P were calculated by Kruskal-Wallis H test with Dunn pairwise comparison post hoc test. Scalebar 400 μm.
# as §1, §2, §3
Compound,calcification of AVICs [1],calcification in hCASMC [2],specific inhibition of STAT5A isoform [3],calcification in hMSCs [4],"ability of AVICs to calcify ([1]; BIBR1532 at 1, 10, or 100 nM added every two days during OST treatment, 28 days (FIG. 13C))"
O=C(COc1ccc2cc(C(=O)Nc3ccccc3)ccc2c1)NCc1ccc(OP(=O)(O)O)c(OP(=O)(O)O)c1 [StafiB-1],this inhibition was of a greater extent than the inhibition observed when AVICs were treated with StafiB-1,did not,–,–,–
COc1cc(-c2cc(OP(=O)(O)O)cc(-c3cc(OC)c(OC)c(OC)c3)c2)cc(OC)c1OC [StafiA-1],significantly inhibited calcification,significantly reduced the calcification,specifically inhibit,significantly reduced the calcification,–
C/C(=C\C(=O)Nc1ccccc1C(=O)O)c1ccc2ccccc2c1 [BIBR1532],–,–,–,–,did not alter the ability of AVICs to calcify

# Reference: patent US20260256761A1, “COMPOSITIONS AND METHODS FOR THE IDENTIFICATION OF INHIBITORS OF AND TREATMENT FOR ECTOPIC CALCIFICATION” (UNIVERSITY OF PITTSBURGH-OF THE COMMONWEALTH SYSTEM OF …, priority 2022, published 2026)
